Key:
p53-Y220C mutant = conditions: covalent, targets Cys220; cited from earlier work
T-p53C-Y220C [1] = biological target: T1, T-p53C-Y220C (Homo sapiens, UniProt P04637, M133L/N239Y/N268D/V203A/Y220C); assay: Intact protein mass spectrometry of T-p53C-Y220C; format: binding; conditions: protein-to-compound ratio 1:100, 24 h, 20 °C
T-p53C-Y220C [2] = biological target: T1, T-p53C-Y220C; assay: DSF thermal shift of T-p53C-Y220C; format: binding; conditions: for T-p53C-Y220C ∆Tm ± SD, concentration-dependent DSF: 1000 µM

| arylated T-p53C-Y220C protein species detected by intact MS (T-p53C-Y220C [1]) | T-p53C-Y220C ∆Tm ± SD (T-p53C-Y220C [2]; 250 µM, 24 h, 20 °C) | incubation time at which ∆Tm of T-p53C-Y220C plateaued / reached maximum (T-p53C-Y220C [2]; 1 mM, 20 °C, time-dependent DSF) | T-p53C-Y220C ∆Tm, time-dependent DSF (T-p53C-Y220C [2]; 1 mM, 10 min incubation, 20 °C) | T-p53C-Y220C ∆Tm ± SD, concentration-dependent DSF (T-p53C-Y220C [2]; 30 min) | T-p53C-Y220C ∆Tm ± SD (T-p53C-Y220C [2]; 1 mM, 30 min, 20 °C) | T-p53C-Y220C ∆Tm ± SD, concentration-dependent DSF (T-p53C-Y220C [2]; 24 h) | SMILES | increase of Tm of the Y220C mutant (p53-Y220C mutant) |
| --- | --- | --- | --- | --- | --- | --- | --- | --- |
| – | – | – | – | – | – | – | C=C(C)C(=O)n1cc(C)c2c(-c3ccc4c(c3)CCN(C)C4)cncc21 [KG13] | levels comparable to those of the WT protein |
| three, four, or five times | 2.87 °C | about 2 h | 2.30 °C | 2.65 °C | 2.75 °C | 3.55 °C | N#Cc1cnc(Cl)cn1 [SN006/7-3, 5-chloro-pyrazine-2-carbonitrile] | – |

From PMC12212008 (Drug Design, Development and Therapy, 2025)
